According to patent US20230365590A1, “BIPHENYL COMPOUND AS IMMUNOMODULATOR, PREPARATION METHOD THEREFOR AND APPLICATION THEREOF” (SHENZHEN CHIPSCREEN BIOSCIENCES CO., LTD., priority 2020, published 2023):

Tests used:
[1] = Repeated-dosing pharmacokinetics test; type: in vivo, B-hPD-1/hPD-L1 humanized female mice; conditions: female, B-hPD-1/hPD-L1 (humanized), mouse, po; humanized mice, 50 mg/kg by gavage once a day for 12 days, plasma on day 12
Experimental: 24 6-week old B-hPD-1/hPD-L1 humanized female mice (purchased from Biocytogen (Jiangsu) Gene Biotechnology Co., Ltd.) were taken and the test compound was dissolved in a solvent containing 5% DMSO, 60% PEG400 and 35% purified water. The compound I-6 and three control molecules, Example 17, Compound 14 (INCB086550) and the aforementioned Example 180 were dosed. The compound was administered by gavage once a day in a dose of 50 mg/kg for 12 consecutive days, and blood was alternately collected through fundus vein plexus on day 12 of administration. The time points for blood collection were 15 min, 30 min, 1 h, 2 h, 4 h, 8 h, 24 h, 32 h and 48 h. About 0.1 mL of blood was collected and centrifuged in a centrifuge tube (heparin sodium for anticoagulation) at 5000 rpm for 5 min to separate plasma, and then frozen at −20° C. for testing. The concentration of the compound in the plasma was determined by liquid chromatography-mass spectrometry (LC-MS/MS). The pharmacokinetic parameters were calculated using Phoenix WinNonlin 7.0 based on the average blood concentration data at different time points.

[2] = Single-dosing pharmacokinetics test; type: in vivo, B-hPD-1/hPD-L1 female mice; conditions: female, B-hPD-1/hPD-L1 (humanized), mouse, po; humanized mice, single dose of 100 mg/kg by gavage, plasma
Experimental: 24 6-week old B-hPD-1/hPD-L1 female mice (purchased from Biocytogen (Jiangsu) Gene Biotechnology Co., Ltd.) were taken and the test compound was dissolved in a solvent containing 5% DMSO, 60% PEG400 and 35% purified water. The compound I-6 and three control molecules, Example 17, Compound 14 (INCB086550) and Example 180 were dosed. The compound was administered by gavage in a single dose of 100 mg/kg and blood was collected through fundus vein plexus after administration. The time points for blood collection were 15 min, 30 min, 1 h, 2 h, 4 h, 8 h, 24 h, 32 h and 48 h. About 0.1 mL of blood was collected and centrifuged in a centrifuge tube (heparin sodium anticoagulation) at 5000 rpm for 5 min to separate plasma, and then frozen at −20° C. for testing. After the plasma sample was treated, the concentration of the compound in the plasma was determined by liquid chromatography-mass spectrometry (LC-MS/MS). The pharmacokinetic parameters were calculated using Phoenix WinNonlin 7.0 based on the average blood concentration data at different time points.

| AUC(0-t) [1] | MRT [1] | half-life [1] | AUC(0-t) [2] | MRT [2] | half-life [2] | Compound |
| --- | --- | --- | --- | --- | --- | --- |
| 151000 ng·h/mL | 12 h | 9.4 h | 207000 ng·h/mL | 10.9 h | 9.3 h | COCC12CCC(CCN3CCc4c(nc(C(=O)Nc5cccc(-c6cccc(NC(=O)c7nc8c(n7C)CCN(CCC79CCC(C(=O)O)(CC7)C9)C8)c6Cl)c5Cl)n4C)C3)(CC1)C2 [Compound I-6, 4-(2-(2-((2,2′-dichloro-3′-(5-(2-(4-(methoxymethyl)bicyclo[2.2.1]heptan-1-yl)ethyl)-1-methyl-4,5,6,7-tetrahydro-1H-imidazo[4,5-c]pyridine-2-carboxamido)-[1, 1′-biphenyl]-3-yl)carbamoyl)-1-methyl-1,4,6,7-tetrahydro-5H-imidazo[4,5-c]pyridin-5-yl)ethyl)bicyclo[2.2.1]heptane-1-carboxylic acid] |
| 27800 ng·h/mL | 4.2 h | 3.3 h | 45400 ng·h/mL | 4.7 h | 3.5 h | Cn1c(C(=O)Nc2cccc(-c3cccc(NC(=O)c4nc5c(n4C)CCN(CC46CCC(C(=O)O)(CC4)C6)C5)c3Cl)c2Cl)nc2c1CCN(CCO)C2 [Example 180] |
